Assay results as given in patent publication US6653331B2, “Targeted drug delivery using sulfonamide derivatives” (Pharmacia & Upjohn Company, priority 1996, dated 2003).

Assays:
GST = experiment: Incubation with GST/GSH, cleavage of the sulfonamide bond; assay type: biochemical
Method: The protected title compound of formula J-1 is deprotected by GST/GSH under mild conditions. Incubations of 100 μM of this compound and 500 μM GSH with GST (0.5 mg protein /mL) are carried out in 100 mM phosphate buffer, pH 7.4 for 1 hour, at 37° C. in a volume of 0.5 mL. The cleavage of sulfonamide bond is essentially 100% complete after one hour incubation to yield the compound of formula J-2.
(§1) The protected title compound of J-1 is cleaved upon in-vitro incubation with GST/GSH. Enzymatic cleavage of J-1 yields sulfite (SO3^2−), azide (N3^−), and the glutathione-(p-nitrobenzene) conjugate.

rat hepatocytes = experiment: In-vitro incubation with rat hepatocytes; assay type: in vitro ADME
Text: (§2) The following observations were made during in-vivo (animal models) and in-vitro (cell cultures) studies of the metabolic disposition of the title compound.

human hepatocytes = experiment: In-vitro incubation with human hepatocytes; assay type: in vitro ADME
Text: as §2

CACO-2 cells = experiment: Metabolism in CACO-2 cell culture; assay type: in vitro ADME, human
Method: as §2, §1

[1] = system: Glutathione-S-transferase (GST); experiment: Sulfonamidase activity of commercial GST (isozyme mixture from rat liver); assay type: biochemical; conditions: title compound and GSH as substrates
Method: Indeed, most of the activity of 10 ml of rat liver cytosol extract was retained by a GSH-Sepharose column (3.9 ml bed volume), packed and equilibrated in 20 mM Hepes buffer, pH 7.5, while the majority of the cytosolic protein was found in the effluent. After the column was washed extensively with up to 1 mM GSH, it was eluted with 5, 20, and 50 mM GSH. The various fractions were dialyzed against 20 mM Hepes buffer, pH 7.5 and tested for enzymatic activity using the title compound and GSH as substrates; the fractions were then subjected to SDS-PAGE. […] The GSH dependence for activity, the ability to purify the enzyme in a single step by a GSH affinity column, and the Mr˜25,000 pointed to Glutathione-S-transferase (GST). […] The commercial preparation was a mixture of GST isozymes purified from rat liver.

GSTA3-3 = target: T1, GSTA3-3 (Rattus norvegicus, UniProt P04904); experiment: Sulfonamidase activity of reconstituted isozyme GSTA3-3; assay type: biochemical; conditions: A3 homodimeric isoform of rat liver cytosol
T1 construct: The commercial preparation was a mixture of GST isozymes purified from rat liver; purchased; host or cells: rat liver (tissue-derived)
T1 sequence (P04904 2-221 limits assumed): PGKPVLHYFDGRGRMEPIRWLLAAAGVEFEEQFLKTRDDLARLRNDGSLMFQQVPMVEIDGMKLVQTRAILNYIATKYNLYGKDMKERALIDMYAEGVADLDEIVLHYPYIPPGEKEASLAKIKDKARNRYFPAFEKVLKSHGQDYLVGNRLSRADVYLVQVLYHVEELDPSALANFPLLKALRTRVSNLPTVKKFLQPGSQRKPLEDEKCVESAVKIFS
Text: (§3) As GST exists in a myriad of isoforms, which are active as homodimers and heterodimers, the specific isozyme(s) which was responsible for sulfonamide bond cleavage in the title compound, was investigated. The commercial isozyme mixture was subjected to RP-HPLC on a C18 column (0.45×25 cm). The separation profile of the various isozymes was very similar to that of published work carried out in conditions almost identical to these conditions. […] The HPLC samples were subjected to lyophilization and refolded in an Na-phosphate buffer at pH 6.8. Alternatively, refolding was carried out by subjecting the HPLC samples to a 16 hours dialysis against Na-phosphate, pH 6.8 followed by a 6 hours dialysis against Na-phosphate, pH 7.4; the refolding process was carried out at 4° C. The title compound's sulfonamidase activity of the reconstituted isozymes was proven for the A3 homodimeric isoform (GSTA3-3), and for the M1 isoform (GSTM1-1) of rat liver cytosol. The identity of the A3 isozyme was confirmed by N-terminus amino acid sequence.

GSTM1-1 = target: T2, GSTM1-1 (Rattus norvegicus, UniProt P04905); experiment: Sulfonamidase activity of reconstituted isozyme GSTM1-1; assay type: biochemical; conditions: M1 isoform of rat liver cytosol
T2 construct: The commercial preparation was a mixture of GST isozymes purified from rat liver; purchased; host or cells: rat liver (tissue-derived)
T2 sequence (P04905 2-218 limits assumed): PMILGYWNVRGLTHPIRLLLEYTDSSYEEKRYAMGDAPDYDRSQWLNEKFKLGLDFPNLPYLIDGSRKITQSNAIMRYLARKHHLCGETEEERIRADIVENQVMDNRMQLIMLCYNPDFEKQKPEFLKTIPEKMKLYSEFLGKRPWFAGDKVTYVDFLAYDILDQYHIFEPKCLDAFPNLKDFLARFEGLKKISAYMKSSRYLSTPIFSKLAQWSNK
Text: as §3

intracellular GSH = conditions: cited from earlier work
[2] = In-vivo metabolic disposition in the rat
Text: as §2

[3] = In-vivo metabolic disposition in the dog
Text: as §2

cells = experiment: Cytotoxicity in the presence of GST inhibitors; assay type: cell-based
Text: Azide, N3^−, is an agent which is known to be cytotoxic to respiring cells. Azide inhibits ATP production via its interference with the cytochrome electron transport chain involved in the terminal stage of oxidative phosphorylation. The agent is markedly cytotoxic to cells relying on aerobic glycolysis/oxidative phosphorylation as a source of energy. […] Metabolism of J-1 within cells by GST releases the potent azide cytotoxin. Thus, covalent coupling of azide with the p-nitrobenzene sulfonyl moiety masks the cytotoxity of azide until cleavage by GST releases the active cytotoxin.

Molecule: CCC[C@@]1(CCc2ccccc2)CC(O)=C([C@H](CC)c2cccc(NS(=O)(=O)c3ccc(C#N)cn3)c2)C(=O)O1 (relative stereo) [J-1, [R-(R*,R*)]-5-Cyano-N-[3-[1-[5,6-dihydro-4-hydroxy-2-oxo-6-(2-phenylethyl)-6-propyl-2H-pyran-3-yl]propyl]phenyl]-2-pyridine-sulfonamide]
- cleavage of sulfonamide bond (GST; 100 μM compound, 500 μM GSH, GST 0.5 mg protein/mL, 100 mM phosphate buffer pH 7.4, 1 hour, 37° C.): ~100%
- sulfonamide cleavage with release of J-2 (rat hepatocytes): underwent sulfonamide cleavage
- sulfonamide cleavage with release of J-2 (human hepatocytes): underwent sulfonamide cleavage
- sulfonamide cleavage by CACO-2 cells (CACO-2 cells; CACO-2, human colon adenocarcinoma cell line): significant sulfonamide cleavage
- rate of cleavage in CACO-2 cells compared with normal cells (CACO-2 cells; CACO-2 cells versus normal cells): markedly faster
- sulfonamidase activity of commercial GST [1]: high sulfonamidase activity
- sulfonamidase activity of reconstituted isozyme (GSTA3-3): proven
- sulfonamidase activity of reconstituted isozyme (GSTM1-1): proven

Molecule: C=C(CC)C(=O)c1ccc(OCC(=O)O)c(Cl)c1Cl [Ethacrynic Acid]
- effect on intracellular GSH (intracellular GSH): deplete intracellular GSH

Molecule: CCC[C@@]1(CCc2ccccc2)CC(O)=C([C@H](CC)c2cccc(N)c2)C(=O)O1 [J-2]
- circulating metabolite of the title compound in the blood [2]: major circulating metabolite
- circulating metabolite of the title compound in the blood [3]: major circulating metabolite

Molecule: [R-(R*,R*)]-5-Cyano-N-[3-[1-[5,6-dihydro-4-hydroxy-2-oxo-6-(2-phenylethyl)-6-propyl-2H-pyran-3-yl]propyl]phenyl]-2-pyridine-sulfonamide [J-1]
- cleavage upon in-vitro incubation with GST/GSH (GST; yields sulfite, azide and the glutathione-(p-nitrobenzene) conjugate): cleaved
- metabolism to form the azide in the presence of known GST inhibitors (CACO-2 cells; known GST inhibitors present): blocked
- metabolism in CACO-2 cell culture (CACO-2 cells; products compared with enzymatic GST/GSH cleavage): yield the same products
- cytotoxicity (cells): relatively non-cytotoxic
